The text below walks through data of US7705016B2, “Regulation of food intake by modulation of long-chain fatty acyl-CoA levels in the hypothalamus” (Albert Einstein College of Medicine of Yeshiva University, priority 2003, dated 2010).

One experiment has as its system KATP. Description: IV lipid infusion with ICV glybenclamide or hepatic vagotomy, pancreatic clamp (Example 4). Format: in vivo, rat. The note with it: near basal insulin (~27 μU/ml), groups S+ICVG, IL+ICVC. The protocol: Hepatic “Autoregulation” in Response to Lipid Infusion Requires Central Stimulation of K-channels (KATP) and Liver Vagal Innervation. […] Since the administration of the LCFA oleic acid in the third cerebral ventricle (ICV) inhibits GP via stimulation of KATP, here we test the hypotheses that: 1) the central activation of KATP by LCFAs restrains GP during lipid infusions, and 2) that this effect requires hepatic vagal input. To this end, 5 h fasted S-D rats were randomized to receive: IV Intralipid+heparin (IL) (increased LCFA levels by ˜3 fold) or saline (S) in combination with ICV Glybenclamide (G) [inhibitor of KATP] or vehicle (C) for 6 h. All rats also received IV infusions of [3-^3H]-glucose for the last 4 h and [U-^14C]-lactate for the last 10 min of the ICV infusion and a pancreatic clamp during the last 2 h of each study. During the clamp period, in the presence of near basal insulin levels (˜27 μU/ml), GP (˜6 mg/kg.min) was unchanged in S+ICVC, S+ICVG or IL+ICVC. […] To examine whether the central effects of LCFA on GP are mediated by vagal stimulation, we next repeated the lipid infusion studies in rats with selective hepatic vagotomy (HV). During the pancreatic clamp period, GP (˜6 mg/kg/min) was similar in S-treated HV and S or IL treated sham-operated rats. Importantly, IL increased GP to 9.7±0.5 (P<0.001) in HV, recapitulating the effect ICVG. […]

Experiment [1] concerns the target T1, hypothalamic CPT1 (Rattus norvegicus, UniProt P32198).
T1 sequence (P32198 1-773): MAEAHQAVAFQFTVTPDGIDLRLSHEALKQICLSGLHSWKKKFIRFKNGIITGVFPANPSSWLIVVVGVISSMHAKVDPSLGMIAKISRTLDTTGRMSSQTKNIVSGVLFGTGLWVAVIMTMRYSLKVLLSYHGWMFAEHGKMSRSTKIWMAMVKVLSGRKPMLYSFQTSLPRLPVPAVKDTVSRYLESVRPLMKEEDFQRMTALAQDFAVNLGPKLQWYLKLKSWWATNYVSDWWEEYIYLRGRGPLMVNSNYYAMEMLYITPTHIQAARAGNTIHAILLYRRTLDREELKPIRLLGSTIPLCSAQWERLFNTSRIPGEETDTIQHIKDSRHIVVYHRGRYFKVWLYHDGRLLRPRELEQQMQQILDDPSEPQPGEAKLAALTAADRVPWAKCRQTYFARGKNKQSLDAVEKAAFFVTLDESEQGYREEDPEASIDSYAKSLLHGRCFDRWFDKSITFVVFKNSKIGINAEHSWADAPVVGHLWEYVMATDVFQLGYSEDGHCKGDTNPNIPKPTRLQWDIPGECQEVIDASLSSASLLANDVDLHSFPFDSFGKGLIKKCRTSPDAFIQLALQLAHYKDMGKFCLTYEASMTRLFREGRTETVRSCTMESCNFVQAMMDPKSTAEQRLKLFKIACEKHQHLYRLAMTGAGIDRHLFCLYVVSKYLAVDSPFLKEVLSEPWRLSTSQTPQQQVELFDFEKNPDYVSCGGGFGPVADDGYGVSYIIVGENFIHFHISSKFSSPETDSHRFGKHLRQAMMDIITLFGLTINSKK
Description: ICV CPTi with or without glybenclamide or liver-selective vagotomy, pancreatic/insulin clamp (Example 4). In kind it is in vivo. The arrangement: from tissue; host or cells: hypothalamus of living S-D rats. Particulars: ICV GLY in CON-infused rats (CON-GLY); not shown. An excerpt:
Decreasing Hypothalamic Lipid Oxidation Inhibits Endogenous Glucose Production (GP) via stimulation of K-channels (KATP) and Vagus Nerve. Administration either of the long-chain fatty acid (LCFA) oleic acid (OA) or of inhibitors of CPT-1 activity (CPT1) in the third cerebral ventricle (ICV) inhibits GP. Here, we hypothesize that inhibition of hypothalamic lipid oxidation with CPTi decreases GP via central activation of ATP-dependent potassium channels (KATP) leading to increased vagal input to the liver. […] All rats also received an IV infusion of [3-^3H]-glucose for the last 4 hr of ICV infusion and pancreatic/insulin clamp (insulin 1 mU/kg/min; somatostatin […]) during the last 2 hr of each study. In the presence of basal insulin levels, glucose infusion (GIR) was required to prevent hypoglycemia in the CPTi (4.9±1.0 mg/kg/min), but not in the CON (2.1±0.4 mg/kg/min) and CPTi-GLY (1.4±0.5 mg/kg/min) groups. […] To investigate whether this neural pathway acts via the hepatic branch of the vagus nerve, ICV CPTi or CON infusions were also performed in rats receiving liver-selective vagotomy (LV) or sham-operation (SH). GIR was markedly higher in CPTi-SH (4.7±1.3 mg/kg/min) compared with both CON-SH (1.3±0.4 mg/kg/min) and CPTi-LV (0.8±0.5 mg/kg/min). […]

For experiment [2], the target named is T1, hypothalamic CPT1. Kind of experiment: ICV infusion with pancreatic-insulin clamp, glucose kinetics (Example 1). Format: in vivo. The arrangement: CPT1 activity was measured in the particulate fraction of protein extracts from animals treated with ICV control injections; from tissue; host or cells: hypothalamus (arcuate nucleus) of male Sprague-Dawley rats, in vivo or ex vivo; Insulin (iU/ml): unit not given here. Particulars: for Food Intake: measured prior to acute ICV infusion, except CPT1L-Ribo group (3 days after ICV). The procedure: Hypothalamic inhibition of CPT1 inhibits glucose production. Experiments were also designed to examine the effect of central inhibition of CPT-1 on whole body insulin action (FIG. 4a,b). Insulin action was assessed by a combination of ICV infusions with systemic pancreatic-insulin clamp studies (FIG. 4b). In these studies, the daily food intake was matched in the rats receiving ICV vector and ICV CPT1L-Ribo (Table 1). All rats also received an intra-arterial infusion of [3-^3H]-glucose for the last 4 hr of ICV infusion and a pancreatic/insulin clamp (insulin 1 mU/kg.min; somatostatin 3 μg/kg/min) during the last 2 hr of the study (Obici et al., 2002a; Obici et al., 2001). As expected in the presence of ˜basal circulating insulin levels (clamp procedure; Table 1), the rate of glucose infusion (GIR) required to maintain euglycemia was marginal in ICV control studies (vector-ST1340- or vehicle-infused animals; ˜0.8 mg/kg/min). By contrast, following ICV infusion of inhibitors of CPT-1 expression or activity glucose had to be infused at the rate of ˜5 mg/kg/min in order to prevent hypoglycemia. Thus, central inhibition of CPT-1 activity in the presence of fixed and basal insulin concentrations stimulates insulin action on glucose homeostasis.
(§1) Animal preparation for in vivo experiments. We studied ninety-three 10-week old male Sprague-Dawley rats (Charles River Breeding Laboratories, Wilmington, Mass.). Rats were housed in individual cages and subjected to a standard light-dark cycle. Three weeks prior to the in vivo studies, we placed a chronic catheter in the third cerebral ventricle by stereotaxic surgery (Obici et al., 2002a; Obici et al., 2001; Liu et al., 1998). One week before the pancreatic-insulin clamp protocols, we placed additional catheters in the right internal jugular and left carotid artery (Obici et al., 2001; Liu et al., 1998). All ICV solutions were dissolved in artificial cerebral spinal fluid (aCSF). Food intake was monitored daily.
Measurements of in vivo glucose kinetics and pancreatic-insulin clamp procedure. The infusion studies lasted a total of 360 min (FIG. 3a). Briefly, at t=0 min a primed-continuous ICV infusion of either CPT1 inhibitors or control solution was initiated and maintained for the remainder of the study. 2-tetradecylglydate (TDGA, a gift from Dr. Manuel Guzman) was dissolved in DMSO, diluted into aCSF (Harvard Apparatus) and infused ICV at a rate of 50 pmoles/hr. […] Prior to the pancreatic-insulin clamp studies, rats receiving ICV injection of either CPT1L-Ribo or vector control three days prior to the clamp procedure were randomized into two pair-fed experimental groups. A primed-continuous infusion of HPLC-purified [3-^3H]-glucose (New England Nuclear, Boston, Mass.; 40 μCi bolus, 0.4 μCi/min) was started at t=120 min and continued for the duration of the study (Obici et al., 2002a; Obici et al., 2001; Liu et al., 1998). Finally, a pancreatic-insulin clamp (Obici et al., 2002a; Obici et al., 2001; Liu et al., 1998) was initiated at t=240 min and lasted for 2 hours. This procedure involved the infusion of somatostatin (3 μg/kg/min), insulin (1 mU/kg/min), and glucose as needed to prevent hypoglycemia, or antibodies against C peptide (Linco) and Melanocortin Receptor type 2 (Chemicon). The rate of insulin infusion was designed to replace normal basal levels in postabsorptive rats.
Radioactivity of [^3H]glucose in plasma was measured from supernatants of Ba(OH)2 and ZnSO4 precipitates after evaporation to dryness for the removal of tritiated water (Somogyi pellet). The specific activity of tritiated water in plasma (Somogyi filtrate) was determined from the total counts of the protein-free supernatant before and after evaporation to dryness. Under steady state conditions for plasma glucose concentration, the rate of glucose disappearance (Rd) equals the rate of glucose appearance (Ra). […]

The target in experiment [3] is T1, hypothalamic CPT1. Description: Food intake after ICV bolus of CPT1 antagonists. Format: in vivo. Particulars: single ICV injection. The arrangement: CPT1 activity was measured in the particulate fraction of protein extracts from animals treated with ICV control injections; from tissue; host or cells: hypothalamus (arcuate nucleus) of male Sprague-Dawley rats, in vivo or ex vivo. The protocol: Hypothalamic inhibition of CPT1 decreases food intake. First we examined whether central administration of molecular and pharmacological antagonists of CPT1 modulates feeding behavior in conscious rats (FIG. 3). […] Food intake was monitored in metabolic cages before and up to 72 h after the ICV injections (Obici et al., 2002a). […] The marked effect of ICV CPT1L-Ribo on food intake was significant when compared with either control vector or with an unrelated control ribozyme (FIG. 3c). […] The anorectic effect of central CPT1 inhibition lasted for at least 48 h following a single ICV administration. These decreases in food intake were significant compared with both baseline and vehicle/control (FIG. 3a-e). The changes from baseline induced by CPT1 inhibition were statistically significant at 24 h (−17.6±2.0 g and −12.4±3.9 g), and 48 h (−13.4±1.8 g and −7.8±3.8 g) following ICV administration of CP1L-Ribo and high dose ST 1326, respectively (FIGS. 3b and e). This represented a ˜50% decrease in daily food intake, which returned toward baseline values by 72 h.
as §1
Effect of central inhibition of CPT1 and food intake. We examined the effects of ICV CPT1L-Ribo and ST 1326 on food intake. Three-hours before the start of the dark cycle, CPT1L-Ribo or vector control, ST 1326 or ST 1340 was injected as a bolus via indwelling catheters implanted in the third cerebral ventricle. In the feeding studies, rats received a single bolus injection of 25 pmoles of ST1340 or two different doses (5 and 25 pmoles) of ST1326. Rats were adapted to the metabolic cages and their daily food intake had been constant (changes <10%) for a minimum of three consecutive days preceding the ICV injections. Food intake was continuously monitored for the following 72 h.

Another experiment deals with rats. The note with it: ICV, equimolar to oleic acid; cited from earlier work.

Take `COc1ccc(Cl)cc1C(=O)NCCc1ccc(S(=O)(=O)NC(=O)NC2CCCCC2)cc1` [GLY, glybenclamide]: the “GP during the clamp period” value in the experiment on KATP is listed as about 6 mg/kg.min. The GP result on hypothalamic CPT1 [1] is given as “did not alter”.

For the compound `CCCCCCCCCCCCCCNC(=O)N[C@@H](CC(=O)[O-])C[N+](C)(C)C` [ST1340, (S)-N-(tetradecylcarbamoyl)-aminocarnitine], at hypothalamic CPT1 [2] (Basal), the “Body wt.” value is given as 307 ± 6 g, the “FFA” value amounted to 0.4 ± 0.1 mM, the “Glucose” value amounted to 8.0 ± 1.0 mM and the “Insulin” value stood at 1.4 ± 0.2 ng/mL. Moreover, at hypothalamic CPT1 [2] (Basal), the “Leptin” value was 0.9 ± 0.2 ng/mL and the “Food Intake” value stood at 22 ± 3 g. In addition, on hypothalamic CPT1 [2] (Clamp, steady-state), the “FFA” value is 0.4 ± 0.1 mM, the “Glucose” value is recorded as 8.2 ± 0.9 mM and the “Insulin (iU/ml)” value is 25 ± 4. Besides, the “rate of glucose infusion (GIR) required to maintain euglycemia” value on hypothalamic CPT1 [2] (pancreatic-insulin clamp, ~basal insulin, ICV infusion) was about 0.8 mg/kg/min. In addition, the “effect on food intake / feeding behavior” value on hypothalamic CPT1 [3] is on record as “failed to modify feeding behavior”.

In the case of `CCCCCCCCCCCCCCC1(C(=O)O)CO1` (stereo not shown) [TDGA, 2-tetradecylglydate], at hypothalamic CPT1 [2] (Basal), the “Body wt.” value is 319 ± 10 g, the “FFA” value was 0.5 ± 0.1 mM, the “Glucose” value was found to be 8.2 ± 0.8 mM and the “Insulin” value is 1.9 ± 0.1 ng/mL. Besides, on hypothalamic CPT1 [2] (Basal), the “Leptin” value came out at 1.7 ± 0.1 ng/mL and the “Food Intake” value came to 25 ± 2 g. At hypothalamic CPT1 [2] (Clamp, steady-state), the “FFA” value was found to be 0.5 ± 0.1 mM, the “Glucose” value was 8.1 ± 0.5 mM and the “Insulin (iU/ml)” value was 25 ± 3. Further, the “decrease in glucose production (GP)” value at hypothalamic CPT1 [2] (basal and equal insulin levels (~20 μU/ml), ICV) is 47±6%. Besides, at hypothalamic CPT1 [2] (~basal insulin concentrations, p<0.01), the “glucose production (GP) during pancreatic clamp vs ICV vehicle controls” value is given as “markedly inhibited GP”.

As for `CCCCCCCC(=O)O` [octanoic acid], the “suppressive effects of ICV oleic acid on food intake and on GP, with equimolar administration” value in the experiment with rats is listed as “not replicated”.
